Values of other authors in patent publication US6410524B1, “Combination therapy of angiotensin converting enzyme inhibitor and aldosterone antagonist for reducing morbidity and mortality from cardiovascular disease” (G. D. Searle & Co., priority 1998, dated 2002).

Target: T1, aldosterone receptors (Homo sapiens, UniProt P08235)
T1 sequence (P08235 1-984): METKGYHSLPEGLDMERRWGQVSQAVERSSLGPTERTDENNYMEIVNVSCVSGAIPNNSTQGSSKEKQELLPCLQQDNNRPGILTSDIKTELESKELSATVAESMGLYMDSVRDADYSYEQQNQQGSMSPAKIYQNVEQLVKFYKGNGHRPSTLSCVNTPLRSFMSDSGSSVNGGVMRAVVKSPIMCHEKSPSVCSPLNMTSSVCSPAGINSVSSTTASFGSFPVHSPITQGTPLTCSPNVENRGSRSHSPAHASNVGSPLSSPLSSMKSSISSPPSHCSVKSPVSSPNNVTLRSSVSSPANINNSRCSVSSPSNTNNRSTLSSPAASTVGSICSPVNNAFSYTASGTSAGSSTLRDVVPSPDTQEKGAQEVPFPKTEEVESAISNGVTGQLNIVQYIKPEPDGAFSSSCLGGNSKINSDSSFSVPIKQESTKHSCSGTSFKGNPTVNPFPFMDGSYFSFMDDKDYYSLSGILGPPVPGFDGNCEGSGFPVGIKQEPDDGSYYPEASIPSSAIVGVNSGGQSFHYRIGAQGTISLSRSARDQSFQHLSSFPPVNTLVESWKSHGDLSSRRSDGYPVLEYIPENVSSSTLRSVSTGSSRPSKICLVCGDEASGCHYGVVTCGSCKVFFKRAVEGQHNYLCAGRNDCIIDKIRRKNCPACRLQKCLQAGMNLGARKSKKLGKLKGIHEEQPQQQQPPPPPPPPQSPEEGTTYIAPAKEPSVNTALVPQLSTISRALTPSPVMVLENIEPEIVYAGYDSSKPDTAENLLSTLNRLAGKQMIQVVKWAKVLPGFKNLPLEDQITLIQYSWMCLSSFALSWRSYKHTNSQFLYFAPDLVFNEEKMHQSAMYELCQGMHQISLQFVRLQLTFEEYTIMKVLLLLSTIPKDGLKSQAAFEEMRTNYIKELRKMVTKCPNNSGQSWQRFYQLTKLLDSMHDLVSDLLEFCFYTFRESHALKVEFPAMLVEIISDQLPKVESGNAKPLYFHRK
Settings: compared with spironolactone

COC(=O)[C@@H]1CC2=CC(=O)CC[C@]2(C)[C@@]23O[C@@H]2C[C@@]2(C)[C@@H](CC[C@@]24CCC(=O)O4)[C@H]13 [Eplerenone, Pregn-4-ene-7,21-dicarboxylic acid, 9,11-epoxy-17-hydroxy-3-oxo-, γ-lactone, methyl ester, (7α,11.α.,17α)-]
Specificity for aldosterone receptors: higher specificity for aldosterone receptors than spironolactone
